One test concerns kisspeptin receptor. The note with it: ref unpublished data; cited from earlier work. Here is the method: The following peptides were tested for antagonistic properties on the kisspeptin receptor: p234 ((D-Ala)-Asn-Trp-Asn-Gly-Phe-Gly-(D-Trp)-Arg-Phe-NH2), p271 (Arg-Arg-Met-Lys-Trp-Lys-Lys-Tyr-(D-Ala)-Asn-Trp-Asn-Gly-Phe-Gly-(D-Trp)-Arg-Phe-NH2), p354 ((D-Ala)-Tyr-Asn-Phe-Asn-Gly-Phe-Gly-(D-Trp)-Arg-Phe-NH2), and p356 ((D-Ala)-Tyr-Asn-Trp-Asn-Gly-Phe-Gly-(D-Trp)-Lys-Phe-NH2). Peptide 354 and p356 are next generation analogs refining p234.

In the next test the test system is plasma LH concentration. Briefly: Plasma LH in anestrous Beagle bitches during antagonist infusion and after cKP10 bolus. The class given is in vivo, dog. Conditions: n = 6. The text has this:
Thirteen adult anestrous Beagle bitches were used for this study. Six dogs with a median age of 89 months (range 43–122 months) were used as control group, receiving cKP10 without an antagonist. Eight dogs with a median age of 52 months (range 31–116 months) were used for the antagonist experiments. One dog was first used in the control group and 12 months later for the antagonist experiments. Of the eight dogs used for the antagonist experiments, four received p271, p354, and p356. In two of the eight dogs both p354 and p356 were tested, while in the remaining two dogs only p271 was tested, in order to test every antagonist in 6 dogs. The time between testing of different kisspeptin antagonists was at least 5 days (range 5–15 days) to ensure that there were no peptide residues. Kisspeptin antagonist p234 per se was not tested in vivo because p271 is in fact p234 with a penetratin tag to enhance passage across the blood-brain barrier, as has been described for use with peripheral administration.
Kisspeptin antagonists (50 μg/kg/h) were administered continuously for three hours via a catheter in the cephalic vein. Two hours after the start of the infusion, a single bolus of cKP10 (0.5 μg/kg) was administered intravenously. Blood samples were collected from the jugular vein by venipuncture at -40 min and 0 min before the antagonist infusion, and then every 30 min for two hours. After the administration of cKP10, blood samples were collected at 10, 20, 40, and 60 min (i.e., 130, 140, 160, and 180 min after the start of the antagonist infusion).
As a control, KP stimulation tests (without the administration of a kisspeptin antagonist) were performed in six dogs. Blood samples were collected from the jugular vein by venipuncture at -40 min and 0 min before, and then at 10, 20, 40, and 60 min after administration of cKP10 (0.5 μg/kg). Plasma LH concentrations were measured in all blood samples.
Plasma LH concentrations were measured with a heterologous radioimmunoassay validated for the dog, as described previously. The intra- and interassay CVs for values above 0.5 μg/l were 2.3 and 10.5%, respectively, and the limit of quantitation was 0.3 μg/l.
In both groups of dogs (experimental and control), the basal plasma LH concentration was calculated for each dog as the mean of the values at –40 and 0 min before cKP10 or antagonist administration. All LH values that exceeded the mean of all basal samples plus 3 SD were attributed to pulsatile secretion and were treated as outliers and excluded from statistical analysis. Log transformation of plasma LH concentrations was used because data were not normally distributed. A linear mixed model was used to analyze differences in plasma LH concentrations before and after KP10, with or without a kisspeptin antagonist (group effects: p271, p354, p356, and controls), with Bonferroni correction. P<0.05 was considered significant.

The target of test [1] is T1, human GPR54 (Homo sapiens, UniProt Q969F8). Description: Flow cytometric calcium flux assay, KP10-induced response after 15 min pre-incubation with antagonist. Conditions: all concentrations 10^-13 to 10^-5 M; 10^-8 M KP10; 15 min pre-incubation; P = 1.00. More on the design: host or cells: rat hematopoietic CHEM1 cells expressing endogenous Galpha15. In kind it is cell-based. Here is the method:
In vitro analyses of the effects of kisspeptin and kisspeptin antagonists, were performed using HT[…] cells (rat hematopoietic CHEM1 cells expressing endogenous Gα15 and, stably expressing the human GPR54 receptor (Millipore BV, the Netherlands), CHEM1-GPR54. Cells were counted and suspended in HBSS+++ at a concentration of 5*10^6 cells/ml. To load the cells with the fluorescent dye ester they were incubated in HBSS+++ adjusted to a concentration of 2 μM Fluo-3 AM (Molecular Probes, Life Technologies, the Netherlands) for 1h at 37°C under agitation in the dark. After incubation, the cells were washed by adding HBSS+++ to a volume of 10 ml followed by centrifugation (5 min, 150 x g) to remove excess of Fluo-3AM. […] Thereafter the tube was removed briefly and 25 μl peptide (see below) was added, after which aspiration and analysis continued. For statistical analyses fluorescent data recorded during the time interval 30-60 seconds after initiation of measurement were used. […] We then assessed whether these antagonists could compete with KP10 for its receptor. […] For this purpose 25 μl quantities of the antagonists were added to 200 μl of Fluo-3 AM labelled cells (10^6 cells/ml) and incubated for 15 min. […] Peptides p354 and p356 were tested three times with both human and canine KP10; while peptides p234 and p271 were tested three times with human KP10 and once with canine KP10. To analyze the effects of different concentrations of the KP antagonists on the calcium response due to KP10 addition, the differences in fluorescence before and after KP10 were calculated (the calcium response). The calcium response ratios were calculated as the calcium response of the CHEM1-GPR54 cells pre-incubated with different concentrations of KP antagonist and the control (the calcium response of the cells without KP antagonist). These calcium response ratios were log transformed and used for further analysis by univariate analysis of variance, with the Dunnett's test as post hoc test. The calcium response ratios were set as dependent variables and the different concentrations of the antagonists and the two types of KP10 were used as fixed factors. The residuals were normally distributed.
Background: A flow cytometer gives signals particle by particle.

Test [2] addresses T1, human GPR54. Briefly: Flow cytometric calcium flux assay, response to peptide alone (agonist / intrinsic activity). The class given is cell-based. More on the design: host or cells: rat hematopoietic CHEM1 cells expressing endogenous Galpha15. Conditions: 10^-13 to 10^-5 M, n = 3; for intrinsic calcium response: any tested concentration; for EC50: CHEM1-GPR54 cells in suspension, Fluo-3 AM, flow cytometry. Here is the method:
In vitro analyses of the effects of kisspeptin and kisspeptin antagonists, were performed using HT[…] cells (rat hematopoietic CHEM1 cells expressing endogenous Gα15 and, stably expressing the human GPR54 receptor (Millipore BV, the Netherlands), CHEM1-GPR54. Cells were counted and suspended in HBSS+++ at a concentration of 5*10^6 cells/ml. To load the cells with the fluorescent dye ester they were incubated in HBSS+++ adjusted to a concentration of 2 μM Fluo-3 AM (Molecular Probes, Life Technologies, the Netherlands) for 1h at 37°C under agitation in the dark. After incubation, the cells were washed by adding HBSS+++ to a volume of 10 ml followed by centrifugation (5 min, 150 x g) to remove excess of Fluo-3AM. […] Thereafter the tube was removed briefly and 25 μl peptide (see below) was added, after which aspiration and analysis continued. For statistical analyses fluorescent data recorded during the time interval 30-60 seconds after initiation of measurement were used. […] Experiments were performed 3 times. Representative flow cytometry results are depicted in Fig 1. […] We then assessed whether these antagonists could compete with KP10 for its receptor. […] For this purpose 25 μl quantities of the antagonists were added to 200 μl of Fluo-3 AM labelled cells (10^6 cells/ml) and incubated for 15 min. […] Peptides p354 and p356 were tested three times with both human and canine KP10; while peptides p234 and p271 were tested three times with human KP10 and once with canine KP10. […] A multivariate general linear model was set up to analyze differences in calcium response between the different concentrations, with Dunnett's test as a post hoc procedure for the antagonists and Bonferroni's test for the agonists.

For the next test, the system named is circulating LH / puberty. Conditions: cited from earlier work. Here is the method: The development of kisspeptin antagonists contributed to an improved understanding of the role of kisspeptin in the reproductive system. Roseweir et al. developed several KP10 analogues and tested their effect on inositol phosphate (IP) release in Chinese hamster ovarian (CHO) cells stably expressing the human GPR54. […] The kisspeptin antagonists were administered intravenously in a dose of 50 μg/kg/h, and had no effect on either the basal plasma LH concentration during the continuous administration or on the KP10-induced LH response. These findings are in line with a previous study in female dogs. […] Adult male rats received an intrape ...

Test [3] deals with T1, human GPR54. The note with it: cited from earlier work. From the text: The development of kisspeptin antagonists contributed to an improved understanding of the role of kisspeptin in the reproductive system. Roseweir et al. developed several KP10 analogues and tested their effect on inositol phosphate (IP) release in Chinese hamster ovarian (CHO) cells stably expressing the human GPR54. […] The peptide antagonists are KP10 analogs with substitutions at several positions, which should result in good receptor binding affinity but reduced receptor activation. None of the peptides tested in the present study prevented or inhibited the KP10-stimulated calcium response and thus receptor activation.

For a further test, the target named is T2, CHEM1-GPR54 cells (Homo sapiens, UniProt Q969F8).
T2 construct: host or cells: rat hematopoietic CHEM1 cells expressing endogenous Galpha15
T2 sequence (Q969F8 whole entry): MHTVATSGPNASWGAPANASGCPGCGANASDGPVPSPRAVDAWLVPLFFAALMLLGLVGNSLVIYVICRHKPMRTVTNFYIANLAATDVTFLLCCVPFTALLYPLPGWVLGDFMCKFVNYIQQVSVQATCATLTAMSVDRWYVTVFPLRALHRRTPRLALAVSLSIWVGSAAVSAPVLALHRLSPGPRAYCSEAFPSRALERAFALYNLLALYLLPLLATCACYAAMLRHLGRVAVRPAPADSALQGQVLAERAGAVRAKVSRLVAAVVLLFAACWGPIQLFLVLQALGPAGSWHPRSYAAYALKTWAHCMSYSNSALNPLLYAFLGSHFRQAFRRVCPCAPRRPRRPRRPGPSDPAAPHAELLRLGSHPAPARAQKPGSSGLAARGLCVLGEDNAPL
Briefly: Preliminary calcium flux assay with adherent CHEM1-GPR54 cells (unpublished). The class given is cell-based. The note with it: too few repeats for statistics.

Where [4] appears, read: antagonist 50 μg/kg/h iv, cKP10 0.5 μg/kg iv.

Square brackets hold non-standard residues; d marks the D form. Ends that are not written are not given here.

T1 sequence (Q969F8 whole entry): as above

[dA]YNFNGFG[dW]RF-NH2 [p354]: in the test with kisspeptin receptor, the “binding and inhibition of kisspeptin action on inositol generation, potency range” value is “nanomolar range”. Moreover, in the test with plasma LH concentration (30 min of antagonist infusion 50 μg/kg/h iv), the “Median (and range) plasma LH, t = 30” value is 3.7 (2.1–13.1) μg/L. Also, in the test with plasma LH concentration (60 min of antagonist infusion 50 μg/kg/h iv), the “Median (and range) plasma LH, t = 60” value is 3.2 (2.2–7.2) μg/L. Also, the “Median (and range) plasma LH, t = 120” value with plasma LH concentration (120 min of antagonist infusion 50 μg/kg/h iv, before cKP10) is reported as 5.2 (2.6–15.7) μg/L. In the test on plasma LH concentration (setting [4]), the “median maximum increment in plasma LH concentration after cKP10 during antagonist administration” value turned out to be 8.1 µg/L and the “range of maximum increment in plasma LH concentration after cKP10 during antagonist administration” value fell in the range of 5.0 to 12.5 µg/L. For the same molecule, in the test with plasma LH concentration (antagonist infusion 50 μg/kg/h iv, 10 min after cKP10 0.5 μg/kg iv), the “Median (and range) plasma LH, t = 130 / t = 10*” value is 13.5 (8.4–20.3) μg/L. The “Median (and range) plasma LH, t = 140 / t = 20*” value with plasma LH concentration (antagonist infusion 50 μg/kg/h iv, 20 min after cKP10 0.5 μg/kg iv) was 10.0 (5.5–13.0) μg/L. Also, the “Median (and range) plasma LH, t = 160 / t = 40*” value in the test with plasma LH concentration (antagonist infusion 50 μg/kg/h iv, 40 min after cKP10 0.5 μg/kg iv) is listed as 6.4 (4.7–9.1) μg/L. In addition, the “Median (and range) plasma LH, t = 180 / t = 60*” value in the test on plasma LH concentration (antagonist infusion 50 μg/kg/h iv, 60 min after cKP10 0.5 μg/kg iv) was 4.7 (3.7–9.9) μg/L. The “Median (and range) plasma LH, Basal” value in the test on plasma LH concentration (before antagonist infusion (mean of -40 and 0 min per dog)) was 4.2 (2.8–6.7) μg/L. In addition, the “effect on basal plasma LH concentration” value in the test with plasma LH concentration (continuous iv 50 μg/kg/h, anestrous bitches) is given as “did not cause significant alterations”. For the same molecule, at human GPR54 [1], the “difference in calcium response ratio between controls and antagonist” value is on record as “not significant”. Moreover, the intrinsic calcium response entry at human GPR54 [2] is reported as “no significant intrinsic calcium response”.
`CC(C)C[C@H](NC(=O)CNC(=O)[C@H](Cc1ccccc1)NC(=O)[C@H](CO)NC(=O)[C@H](CC(N)=O)NC(=O)[C@H](Cc1c[nH]c2ccccc12)NC(=O)[C@H](CC(N)=O)NC(=O)[C@@H](N)Cc1ccc(O)cc1)C(=O)N[C@@H](CCCNC(=N)N)C(=O)N[C@@H](Cc1ccccc1)C(N)=O` [hKP10, Tyr-Asn-Trp-Asn-Ser-Phe-Gly-Leu-Arg-Phe-NH2, reference compound]: the EC50 on human GPR54 [2] was 1.2 nM.
On the same count and under the same terms, for “YNWNVFGLRY-NH2 [cKP10, Tyr-Asn-Trp-Asn-Val-Phe-Gly-Leu-Arg-Tyr-NH2, reference compound]” the value was 8 nM.
As to “[dA]NWNGFG[dW]RF-NH2 [p234, kisspeptin antagonist, KP10 analog]”, the “effect of antagonist alone on basal plasma LH” value with circulating LH / puberty (intact rats and mice) was “did not lower the basal plasma LH concentration”. The “effect on circulating LH when co-administrated with KP10” value with circulating LH / puberty (intracerebroventricular) was “prevented an increase in the circulating LH concentration”. Besides, the “effect on vaginal opening (indicator of puberty)” value with circulating LH / puberty (rats, intracerebroventricular) was “delayed vaginal opening”. For the same molecule, the “inhibitory effect on IP release in vitro, rank among KP10 analogues” value on human GPR54 [3] (CHO cells stably expressing human GPR54) is on record as “most potent inhibitory effect”. For the same molecule, on human GPR54 [3] (CHO cells that express GPR54), the “inhibition of KP10-induced inositol phosphate (IP) production” value is listed as 93%. In addition, the “difference in calcium response ratio between controls and antagonist” value on human GPR54 [1] is “not significant”. The intrinsic calcium response result at human GPR54 [2] is “no significant intrinsic calcium response”. At CHEM1-GPR54 cells, the “inhibition of KP10-induced calcium response, adherent cells” value is listed as “could not be inhibited”.

What is called EC50 is the concentration at which the effect is half-maximal.

These data come from PMC5484485, “In vitro and in vivo effects of kisspeptin antagonists p234, p271, p354, and p356 on GPR54 activation” (PLoS ONE, 2017).
